# Measured values from patent publication US11835523B2, “Assays for improving automated antimicrobial susceptibility testing accuracy” (priority 2018, dated 2023).
# Legend:
# Type in all cases: cell-based
# beta lactamase = test: Beta-lactamase inhibitor assay with nitrocefin probe (Example 1, FIG. 1); settings: 4 μg/mL inhibitor, 0.25 mg/mL nitrocefin, 35° C., 4 hours
# Experimental: By comparing the signal from an “inhibited” well to one containing the probe and microbes alone, the efficacy of the inhibitor may be tested.
# Microbes were prepared by diluting colonies into saline to reach a McFarland value of 0.5, which was verified using a spectrophotometer. This was diluted 1:20 into saline and 50 μI of inoculum was added to wells of a 384-well plate. For each strain, 25 μI of solutions containing either 0.25 mg/mL nitrocefin alone (Nitro), 0.25 mg/mL nitrocefin and 4 μg/mL clauvulanate (Nitro Clay), or 0.25 mg/mL nitrocefin and 4 μg/mL tazobactam (Nitro Tazo) were added to duplicate wells. Inoculated plates were incubated at 35° C., shaking at 150 rpm for 4 hours. Absorbance was read at 490 nm and values shown in FIG. 1 are the absorbance in the indicated condition minus the absorbance from microbial inoculum alone without nitrocefin. A greater value indicates microbial ability to degrade nitrocefin, and thus, the presence of a beta lactamase. A reduction in absorbance value in the presence of an inhibitor indicates the beta lactamase present is sensitive to the inhibitor.
# K. pneumoniae = test: Acidimetric carbapenemase assay, four wells, intact microbes (Example 2); settings: 5 mg/mL imipenem solution added 1:1, 4 hours
# Source text: (§1) In an exemplary embodiment, the assay comprises a minimum of 4 wells and utilizes a sample comprising intact microbes. The first well (Well1) comprises a medium such as a buffered saline solution or a nutrient broth, a carbapenem, ionic zinc, and a pH indictor. The second well (Well2) comprises the medium, a carbapenem, ionic zinc, a pH indictor, and a microbe sample comprising <1×10^8 CFU microbes. The third well (Well3) comprises the medium, ionic zinc, and a pH indictor. The fourth well (Well4) comprises the medium, ionic zinc, a pH indictor, and a microbe sample comprising <1×10^8 CFU microbes. The following formula can then be utilized to normalize the result: Normalized Activity=(Well1−Well2)−(Well3−Well4) [Formula 1]
# (§2) The above says that imipenem degradation is the change in pH (e.g. loss of signal) due to the presence of microbes less the change in pH (e.g. loss of signal) due to microbes in solution only.
# (§3) Example 2. Microbes were prepared by diluting colonies into saline to reach a McFarland value of 0.5, which was verified using a spectrophotometer. 100 μL of the microbe solution was added to each of 2 wells in a 96-well plate. 100 μL of saline was added to 2 separate wells on the plate. 100 μL of an imipenem solution containing 5 mg/mL imipenem, 0.1 mM ZnSO4, and 10 μM Fluorescein Na salt, pH 8, was added to one of the microbe-containing wells (Well2) and one of the saline wells (Well1). 100 μL of a negative control solution containing 0.1 mM ZnSO4, and 10 μM Fluorescein Na salt pH 7.5, was added to one of the microbe-containing wells (Well4) and one of the saline wells (Well3). Plates were incubated, shaking at 35° C. for 4 hours and fluorescence of the wells was read at […]. The values reported were calculated to determine the hydrolysis of imipenem by the microbes using Equation 1.
# E. coli = test: as above; parameters: key: Normalized activity = (Well1−Well2)−(Well3−Well4), pH indicator signal; settings: 5 mg/mL imipenem solution added 1:1, 4 hours
# Source text: as §1, §2, §3
# K pneumoniae [1] = test: Carbapenemase assay at various concentrations of imipenem (Example 3); parameters: unit not given here; settings: within 4 hours
# Source text: as §1
# (§4) Example 3. Microbes were prepared by diluting colonies into saline to reach a McFarland value of 0.5, which was verified using a spectrophotometer. 25 μL of the microbe solution was added to each of 2 wells in a 384-well plate. 25 μL of saline was added to 2 separate wells on the plate. 25 μL of an imipenem solution containing imipenem, 0.1 mM ZnSO4, and 10 μm Fluorescein Na Salt, pH 8, was added to one of the microbe-containing wells (Well2) and one of the saline wells […]. 25 μL of a negative control solution containing 0.1 mM ZnSO4, and 10 μM Fluorescein Na Salt, pH 7.5, was added to one of the microbe containing wells (Well4) and one of the saline wells (Well3). Plates were incubated, shaking at 35° C. for 3 hours and fluorescence of the wells was read at Em=490/Ex=510. This organization of the assay was performed multiple times, varying the concentration of imipenem in solution. The assay was run with final imipenem concentrations of 50 μg/mL, 125 μg/mL, 250 μg/mL, 500 μg/mL, 1250 μg/mL, and 2500 μg/mL. The values reported were calculated to determine the hydrolysis of imipenem by the microbes using Equation 1.
# E coli [2] = test: as above; settings: within 4 hours
# Source text: as §1, §4
# E coli [3] = test: Carbapenemase assay performed with dried reagents (Example 4); settings: E coli ATCC 25922, known carbapenemase none, 300 μg/mL imipenem, 4 hours
# Source text: as §1
# (§5) Example 4. Microbes were prepared by diluting colonies into saline to reach a McFarland value of 0.5, which was verified using a spectrophotometer. 100 μL of the microbe solution was added to each of 2 wells in a vacuum-dried 96-well plate (Well2, Well4). 100 μL of saline was added to 2 separate wells on the plate (Well1 and Well3). Following addition of microbial or saline solutions, the final concentrations of the contents in each well were: 300 μg/mL imipenem, 0.05 mM ZnSO4, and 10 μM Fluorescein Na Salt, pH 7.8, (Well1, Well2); only 0.05 mM ZnSO4 and 10 μM Fluorescein Na Salt, pH 7.8, were present in the third and four wells (Well3, Well4). Plates were incubated, shaking at 35° C. for 4 hours and fluorescence of the wells was read at Em=490/Ex=510. The values reported were calculated to determine the hydrolysis of imipenem by the microbes using Equation 1.
# K pneumoniae [4] = test: as above; settings: 4 hours
# Source text: as §1, §5
smiles,measurement,setting,value
O=C(O)[C@H]1/C(=C/CO)O[C@@H]2CC(=O)N21 [clauvulanate],inhibitor activity against strains with known beta lactamases (reduction in nitrocefin absorbance at 490 nm),beta lactamase,active
C[C@@H](O)[C@H]1C(=O)N2C(C(=O)O)=C(SCCN=CN)C[C@H]12 [imipenem],Carbapenemase Activity,"K. pneumoniae; K. pneumoniae 700603, known carbapenemase none",−2659.8725
same,Carbapenemase Activity,"K. pneumoniae; K. pneumoniae CDC CNP 03, known carbapenemase IMP",3662.106
same,Carbapenemase Activity,"K. pneumoniae; K. pneumoniae CDC CNP 08, known carbapenemase OXA-181",1323.2385
same,Carbapenemase Activity,"K. pneumoniae; K. pneumoniae CDC CNP 09, known carbapenemase VIM",2315.76
same,Carbapenemase Activity,"K. pneumoniae; K. pneumoniae SML86, known carbapenemase none",−1861.1485
same,Carbapenemase Activity,"K. pneumoniae; K. pneumoniae SML87, known carbapenemase none",−3075.4205
same,Carbapenemase Activity,"E. coli; E. coli 25922, known carbapenemase none",−2106.4115
same,Carbapenemase Activity,"E. coli; E. coli AEL18, known carbapenemase none",−1551.4885
same,Carbapenemase Activity,"E. coli; E. coli AEL19, known carbapenemase none",−696.4825
same,Carbapenemase Activity,"E. coli; E. coli AEL 20, known carbapenemase none",−882.3165
same,Carbapenemase Activity,"E. coli; E. coli AR0346, known carbapenemase none, ESBL +",−2560.861
same,Carbapenemase Activity,"E. coli; E. coli AR0348, known carbapenemase none",−2960.1665
same,Carbapenemase Activity,"E. coli; E. coli AR0349, known carbapenemase none, ESBL +",−2861.008
same,Carbapenemase Activity,"E. coli; E. coli CDC BIT 01, known carbapenemase KPC",8803.9255
same,Carbapenemase Activity,"E. coli; E. coli CDC CNP 27, known carbapenemase none, ESBL +",−2401.2335
same,Carbapenemase Activity,"E. coli; E. coli CDC CNP 38, known carbapenemase NDM",19534.8825
same,Carbapenemase Activity,"E. coli; E. coli CDC CNP 54, known carbapenemase none, Amp beta lactamase",−1950.443
same,Carbapenemase Activity,"E. coli; E. coli CDC CNP 73, known carbapenemase KPC",3480.1845
same,Carbapenemase Activity,"E. coli; E. coli CDC CRE 03, known carbapenemase KPC-3",7149.729
same,Carbapenemase Activity,"E. coli; E. coli CDC CRE 07, known carbapenemase NDM",27447.359
same,Carbapenemase Activity,"E. coli; E. coli CDC CRE 17, known carbapenemase NDM",36400.9235
same,Carbapenemase Activity,"E. coli; E. coli CDC CRE 26, known carbapenemase NDM",41326.61
same,Carbapenemase Activity,"E. coli; E. coli SML 19, known carbapenemase none",−2540.0545
same,Carbapenemase Activity,"E. coli; E. coli SML20, known carbapenemase none",−2734.3825
same,Carbapenemase Activity,"E. coli; E. coli TRICORE 71, known carbapenemase none",−1138.2225
same,Carbapenemase Activity,"E. coli; E. coli TRICORE 72, known carbapenemase none",−2554.797
same,Carbapenemase Activity in various concentrations of imipenem,"K pneumoniae [1]; K pneumoniae AR 34, known carbapenemase IMP, 50 μg/mL imipenem",1034.5
same,Carbapenemase Activity in various concentrations of imipenem,"K pneumoniae [1]; K pneumoniae AR 34, known carbapenemase IMP, 125 μg/mL imipenem",2776.5
same,Carbapenemase Activity in various concentrations of imipenem,"K pneumoniae [1]; K pneumoniae AR 34, known carbapenemase IMP, 250 μg/mL imipenem",2456.5
same,Carbapenemase Activity in various concentrations of imipenem,"K pneumoniae [1]; K pneumoniae AR 34, known carbapenemase IMP, 500 μg/mL imipenem",1807.5
same,Carbapenemase Activity in various concentrations of imipenem,"K pneumoniae [1]; K pneumoniae AR 34, known carbapenemase IMP, 1250 μg/mL imipenem",1148
same,Carbapenemase Activity in various concentrations of imipenem,"K pneumoniae [1]; K pneumoniae AR 34, known carbapenemase IMP, 2500 μg/mL imipenem",637.5
same,Carbapenemase Activity in various concentrations of imipenem,"K pneumoniae [1]; K pneumoniae ATCC BAA-2342, known carbapenemase KPC, 50 μg/mL imipenem",1817
same,Carbapenemase Activity in various concentrations of imipenem,"K pneumoniae [1]; K pneumoniae ATCC BAA-2342, known carbapenemase KPC, 125 μg/mL imipenem",4702.5
same,Carbapenemase Activity in various concentrations of imipenem,"K pneumoniae [1]; K pneumoniae ATCC BAA-2342, known carbapenemase KPC, 250 μg/mL imipenem",4270.5
same,Carbapenemase Activity in various concentrations of imipenem,"K pneumoniae [1]; K pneumoniae ATCC BAA-2342, known carbapenemase KPC, 500 μg/mL imipenem",3708
same,Carbapenemase Activity in various concentrations of imipenem,"K pneumoniae [1]; K pneumoniae ATCC BAA-2342, known carbapenemase KPC, 1250 μg/mL imipenem",3251
same,Carbapenemase Activity in various concentrations of imipenem,"K pneumoniae [1]; K pneumoniae ATCC BAA-2342, known carbapenemase KPC, 2500 μg/mL imipenem",3114.5
same,Carbapenemase Activity in various concentrations of imipenem,"E coli [2]; E coli AR 69, known carbapenemase NDM, 50 μg/mL imipenem",1111
same,Carbapenemase Activity in various concentrations of imipenem,"E coli [2]; E coli AR 69, known carbapenemase NDM, 125 μg/mL imipenem",3367
same,Carbapenemase Activity in various concentrations of imipenem,"E coli [2]; E coli AR 69, known carbapenemase NDM, 250 μg/mL imipenem",2827
same,Carbapenemase Activity in various concentrations of imipenem,"E coli [2]; E coli AR 69, known carbapenemase NDM, 500 μg/mL imipenem",2300.5
same,Carbapenemase Activity in various concentrations of imipenem,"E coli [2]; E coli AR 69, known carbapenemase NDM, 1250 μg/mL imipenem",1908.5
same,Carbapenemase Activity in various concentrations of imipenem,"E coli [2]; E coli AR 69, known carbapenemase NDM, 2500 μg/mL imipenem",1902.5
same,Carbapenemase Activity in various concentrations of imipenem,"E coli [2]; E coli AR 114, known carbapenemase KPC3, 50 μg/mL imipenem",930.5
same,Carbapenemase Activity in various concentrations of imipenem,"E coli [2]; E coli AR 114, known carbapenemase KPC3, 125 μg/mL imipenem",3793.5
same,Carbapenemase Activity in various concentrations of imipenem,"E coli [2]; E coli AR 114, known carbapenemase KPC3, 250 μg/mL imipenem",3342.5
same,Carbapenemase Activity in various concentrations of imipenem,"E coli [2]; E coli AR 114, known carbapenemase KPC3, 500 μg/mL imipenem",2784.5
same,Carbapenemase Activity in various concentrations of imipenem,"E coli [2]; E coli AR 114, known carbapenemase KPC3, 1250 μg/mL imipenem",2173.5
same,Carbapenemase Activity in various concentrations of imipenem,"E coli [2]; E coli AR 114, known carbapenemase KPC3, 2500 μg/mL imipenem",1825.5
same,Carbapenemase Activity in various concentrations of imipenem,"E coli [2]; E coli ATCC 25922, known carbapenemase none, 50 μg/mL imipenem",−70.5
same,Carbapenemase Activity in various concentrations of imipenem,"E coli [2]; E coli ATCC 25922, known carbapenemase none, 125 μg/mL imipenem",−522
same,Carbapenemase Activity in various concentrations of imipenem,"E coli [2]; E coli ATCC 25922, known carbapenemase none, 250 μg/mL imipenem",−599.5
same,Carbapenemase Activity in various concentrations of imipenem,"E coli [2]; E coli ATCC 25922, known carbapenemase none, 500 μg/mL imipenem",−558.5
same,Carbapenemase Activity in various concentrations of imipenem,"E coli [2]; E coli ATCC 25922, known carbapenemase none, 1250 μg/mL imipenem",−463.5
same,Carbapenemase Activity in various concentrations of imipenem,"E coli [2]; E coli ATCC 25922, known carbapenemase none, 2500 μg/mL imipenem",−282
same,Carbapenemase Activity,E coli [3],−6116
same,Carbapenemase Activity,"K pneumoniae [4]; K pneumoniae ATCC 700603, known carbapenemase none, 300 μg/mL imipenem",−2026
same,Carbapenemase Activity,"K pneumoniae [4]; K pneumoniae ATCC BAA-1705, known carbapenemase KPC2, 300 μg/mL imipenem",19742
same,Carbapenemase Activity,"K pneumoniae [4]; K pneumoniae ATCC BAA-2814, known carbapenemase KPC3, 300 μg/mL imipenem",18057
C[C@]1(Cn2ccnn2)[C@H](C(=O)O)N2C(=O)C[C@H]2S1(=O)=O [tazobactam],inhibitor activity against strains with known beta lactamases (reduction in nitrocefin absorbance at 490 nm),beta lactamase,active
